Assay results: PubChem BioAssay (NCI)
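Each compound was tested at five concentrations against cells in 96-well plates for 48 hours. GI50 marks 50% less growth. At the TGI there is no net growth.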

Experiments:
Assay in all cases: inhibition of tumour cell growth, NCI panel, 48 h
[1] = tested on: MOLT-4 leukemia
[2] = tested on: NCI-H460 lung
[3] = tested on: OVCAR-8 ovarian
[4] = tested on: U251 CNS
[5] = tested on: 786-0 renal
[6] = tested on: NCI-H522 lung
[7] = tested on: SW-620 colon
[8] = tested on: M14 melanoma
[9] = tested on: OVCAR-5 ovarian
[10] = tested on: T-47D breast

Compound: Cc1ccccc1NC(=O)CC(=O)NNCC(=O)Nc1nnc(-c2ccccc2)s1
- TGI [1]: > 100 µM
- TGI [2]: > 100 µM
- TGI [3]: > 100 µM
- TGI [4]: > 100 µM
- TGI [5]: > 100 µM
- TGI [6]: > 100 µM
- TGI [7]: > 100 µM
- TGI [8]: > 100 µM
- TGI [9]: > 100 µM

Compound: CCC12C=C(C(=O)OC)N3c4ccccc4C4CCN(CCC1)C2C43 (stereo unspecified)
- TGI [1]: > 100 µM
- TGI [3]: > 100 µM
- TGI [4]: > 100 µM
- TGI [5]: 60.9 µM
- TGI [6]: > 100 µM
- TGI [7]: > 100 µM
- TGI [8]: > 100 µM
- TGI [9]: > 100 µM

Compound: CCCCC(C(=O)C(=O)Nc1ccccc1CC)C(=O)C(C)C (stereo unspecified)
- TGI [1]: > 100 µM
- TGI [2]: > 100 µM
- TGI [3]: > 100 µM
- TGI [4]: > 100 µM
- TGI [5]: > 100 µM
- TGI [6]: > 100 µM
- TGI [7]: > 100 µM
- TGI [8]: > 100 µM
- TGI [9]: > 100 µM

Compound: COc1ccc(-c2c(Nc3ccccn3)nc3c(C4=CCCCC4)c(-c4ccccc4)[nH]n3c2=O)cc1
- GI50 [2]: 0.645 µM
- TGI [2]: 14 µM
- GI50 [3]: 3.47 µM
- TGI [3]: > 100 µM
- GI50 [4]: 1.95 µM
- TGI [4]: 17.9 µM
- GI50 [5]: 2.63 µM
- TGI [5]: 16.3 µM
- GI50 [10]: 2.22 µM
- TGI [10]: 17.3 µM
- GI50 [6]: 3.55 µM
- TGI [6]: 23.9 µM
- GI50 [7]: 3.07 µM
- TGI [7]: > 100 µM
- GI50 [8]: 1.23 µM
- TGI [8]: > 100 µM
- GI50 [9]: 5.52 µM
- TGI [9]: > 100 µM

Compound: ON1CCc2c([nH]c3ccccc23)C1c1ccc(Cl)cc1 (stereo unspecified)
- TGI [1]: 79.7 µM
- TGI [3]: > 100 µM
- TGI [4]: 29.8 µM
- TGI [5]: > 100 µM
- TGI [6]: 60 µM
- TGI [7]: > 100 µM
- TGI [8]: > 100 µM
- TGI [9]: 99.1 µM

Compound: O=C(/C=C(\[O-])c1ccccc1)CCCCCCC(=O)/C=C(\[O-])c1ccccc1.O=C(/C=C(\[O-])c1ccccc1)CCCCCCC(=O)/C=C(\[O-])c1ccccc1.O=C(/C=C(\[O-])c1ccccc1)CCCCCCC(=O)/C=C(\[O-])c1ccccc1.[Y+3].[Y+3]
- GI50 [1]: 26.9 µM
- TGI [1]: > 50 µM
- GI50 [2]: > 50 µM
- TGI [2]: > 50 µM
- GI50 [3]: 37.4 µM
- TGI [3]: > 50 µM
- GI50 [4]: 25.7 µM
- TGI [4]: > 50 µM
- GI50 [5]: 21.7 µM
- TGI [5]: > 50 µM
- GI50 [6]: 9.86 µM
- TGI [6]: 37.9 µM
- GI50 [7]: > 50 µM
- TGI [7]: > 50 µM
- GI50 [8]: > 50 µM
- TGI [8]: > 50 µM
- GI50 [9]: > 50 µM
- TGI [9]: > 50 µM

Compound: CN(C)c1ccc(/C=C2\CCc3ccccc3C2=O)cc1Br
- TGI [1]: > 100 µM
- TGI [2]: > 100 µM
- TGI [3]: > 100 µM
- TGI [4]: > 100 µM
- TGI [5]: > 100 µM
- TGI [6]: > 100 µM
- TGI [7]: > 100 µM
- TGI [8]: > 100 µM
- TGI [9]: > 100 µM

Compound: Nc1ccccc1C(=O)/C=C/c1ccccc1O
- TGI [1]: > 100 µM
- TGI [2]: > 100 µM
- TGI [3]: > 100 µM
- TGI [4]: > 100 µM
- TGI [5]: > 100 µM
- TGI [6]: > 100 µM
- TGI [7]: > 100 µM
- TGI [8]: > 100 µM
- TGI [9]: > 100 µM

Compound: O=C(O)c1cn(C2CC2)c2cc(N3CCN(C(=O)N(c4ccccc4)c4nc(-c5ccccc5)cs4)CC3)c(F)cc2c1=O
- GI50 [2]: 0.296 µM
- TGI [2]: > 100 µM
- GI50 [3]: 0.378 µM
- TGI [3]: > 100 µM
- GI50 [4]: 0.381 µM
- TGI [4]: > 100 µM
- GI50 [5]: 0.417 µM
- TGI [5]: > 100 µM
- GI50 [10]: 2.3 µM
- TGI [10]: > 100 µM
- GI50 [8]: 0.437 µM
- TGI [8]: > 100 µM

Compound: O=C(CCN1CCOCC1)Nc1ccc(Cn2nnc3c2C(=O)c2nnn(Cc4ccc(NC(=O)CCN5CCOCC5)cc4)c2C3=O)cc1
- GI50 [1]: 0.763 µM
- TGI [1]: 3.48 µM
- GI50 [2]: 0.569 µM
- TGI [2]: > 100 µM
- GI50 [3]: > 100 µM
- TGI [3]: > 100 µM
- GI50 [4]: 4.25 µM
- TGI [4]: 18.4 µM
- GI50 [5]: > 100 µM
- TGI [5]: > 100 µM
- GI50 [6]: 1.63 µM
- TGI [6]: 4.34 µM
- GI50 [7]: 2.58 µM
- TGI [7]: > 100 µM
- GI50 [8]: 6.74 µM
- TGI [8]: > 23.1 µM
- GI50 [9]: > 100 µM
- TGI [9]: > 100 µM

Compound: COC(=O)C1CC(=O)O[C@H]1c1ccc(OC)c(OC)c1 (stereo partly specified)
- TGI [1]: > 100 µM
- TGI [2]: > 100 µM
- TGI [3]: > 100 µM
- TGI [4]: > 100 µM
- TGI [5]: > 100 µM
- TGI [7]: > 100 µM
- TGI [8]: > 100 µM
- TGI [9]: > 100 µM

Compound: CN(C)c1ccc(/C=c2/sc3nc(=O)c(-c4ccccc4NC(=O)C(F)(F)F)nn3c2=O)cc1
- TGI [1]: > 100 µM
- TGI [2]: > 100 µM
- TGI [3]: > 100 µM
- TGI [4]: > 100 µM
- TGI [5]: > 100 µM
- TGI [6]: > 100 µM
- TGI [7]: > 100 µM
- TGI [8]: > 100 µM
- TGI [9]: > 100 µM

Compound: O/N=C1/C(=C/c2ccc(OCc3ccccc3)cc2)CCCC1C(NO)c1ccc(OCc2ccccc2)cc1 (stereo unspecified)
- TGI [1]: > 100 µM
- TGI [2]: > 100 µM
- TGI [3]: > 100 µM
- TGI [4]: 33.4 µM
- TGI [5]: > 100 µM
- TGI [6]: 48 µM
- TGI [7]: > 100 µM
- TGI [8]: > 100 µM
- TGI [9]: > 100 µM

Compound: CC(=O)NC(CCCNC(=O)OCc1ccccc1)C(=O)NCc1ccccc1 (stereo unspecified)
- TGI [1]: > 100 µM
- TGI [2]: > 100 µM
- TGI [3]: > 100 µM
- TGI [4]: > 100 µM
- TGI [5]: > 100 µM
- TGI [6]: > 100 µM
- TGI [7]: > 100 µM
- TGI [8]: > 100 µM
- TGI [9]: > 100 µM

Compound: O=[N+]([O-])c1ccc(/C=C/c2ccc(/C=C/c3ccc([N+](=O)[O-])cc3[N+](=O)[O-])cc2)c([N+](=O)[O-])c1
- TGI [1]: > 100 µM
- TGI [2]: > 100 µM
- TGI [3]: > 100 µM
- TGI [4]: > 100 µM
- TGI [5]: > 100 µM
- TGI [7]: > 100 µM
- TGI [8]: > 100 µM
- TGI [9]: > 100 µM

Compound: CCOC(OCC)(OCC)C(Br)CC (stereo unspecified)
- TGI [1]: > 100 µM
- TGI [2]: > 100 µM
- TGI [3]: > 100 µM
- TGI [4]: > 100 µM
- TGI [5]: 37.8 µM
- TGI [6]: > 100 µM
- TGI [8]: > 100 µM
- TGI [9]: > 100 µM

Compound: O=C(CC1(O)C(=O)Nc2c(Cl)ccc(Cl)c21)c1ccc(Cl)cc1 (stereo unspecified)
- TGI [2]: 61.9 µM
- TGI [3]: 42.1 µM
- TGI [4]: 84.5 µM
- TGI [5]: 32.1 µM
- TGI [7]: > 100 µM
- TGI [8]: 69.1 µM
- TGI [9]: > 100 µM

Compound: N#Cc1c(CC(=O)O)cc(=O)n2c1[nH]c1ccccc12
- TGI [1]: > 100 µM
- TGI [2]: > 100 µM
- TGI [3]: > 100 µM
- TGI [4]: > 100 µM
- TGI [5]: > 100 µM
- TGI [7]: > 100 µM
- TGI [8]: > 100 µM
- TGI [9]: > 100 µM

Compound: CNS(=O)(=O)NNS(=O)(=O)c1ccc(C)cc1
- TGI [1]: > 100 µM
- TGI [2]: > 100 µM
- TGI [3]: > 100 µM
- TGI [5]: > 100 µM
- TGI [6]: > 100 µM
- TGI [7]: > 100 µM
- TGI [8]: > 100 µM
- TGI [9]: > 100 µM

Compound: COC1=CC(=O)C(O)=C(CC2(C)C(C)CCC3(C)C2CCCC3(C)C)C1=O (stereo unspecified)
- TGI [1]: 18.5 µM
- TGI [2]: 10.6 µM
- TGI [3]: 26.2 µM
- TGI [4]: 13.8 µM
- TGI [5]: 19.1 µM
- TGI [6]: 13 µM
- TGI [7]: 30.5 µM
- TGI [8]: 7.65 µM
- TGI [9]: 21.9 µM
